Here are results for 30 compounds from PubChem BioAssay (NCI).

The structures appear in SMILES notation.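 Cultured in 96-well plates, cells were exposed to test compound for 48 hours across five concentrations. GI50 is the concentration that inhibits growth by half. TGI is the concentration that stops growth completely.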 Where only a bound is given, the exact number is not on record here.

The first assay deals with HOP-92 NSCLC. In words: NCI tumour cell line growth inhibition, 48 h.
Compound `CC(=O)OCC(=O)[C@@]1(O)CC[C@H]2[C@@H]3C[C@H](C)C4=CC(=O)C=C[C@]4(C)[C@@]3(F)[C@@H](O)C[C@@]21C` came in with a TGI of more than 100 µM.
Take `OCCCCC#Cc1ccccc1C#Cc1cccc(C(F)(F)F)c1`: the GI50 was 19.9 µM and the TGI worked out at 36.2 µM.
Compound `COc1cc(/C=C/c2csnn2)cc(OC)c1OC` showed a TGI of more than 100 µM.
On to `CC(C)[C@@H]1CC[C@]2(CO2)[C@@H]2C(=O)OCC(C(=O)O)=C[C@H]21`, for which the GI50 is 0.235 µM and the TGI was determined as 0.79 µM.
For `COc1ccc(/C=C2\CCC/C(=C\c3ccc(OC)c(OC)c3)C2=O)cc1OC`, the GI50 was 11.3 µM and the TGI was more than 32.5 µM.

The subject of a further assay is HS 578T breast. In words: NCI tumour cell line growth inhibition, 48 h.
The compound `NC(N)=NCCCC(NCc1c2ccccc2nc2ccccc12)C(=O)O` (stereo not given) came in with a TGI of more than 100 µM.
As to `Cc1cc(Br)c(NC(=O)c2c(-c3c(Cl)cccc3Cl)noc2C)c(Br)c1`, the GI50 is 26.5 µM and the TGI was more than 100 µM.
For `OCC1CC[N-]CC1.OCC1CC[N-]CC1.[Cl][Pt+2]([Cl])([Cl])[Cl]`, the GI50 was 45.8 µM.
Take `OCCCCC#Cc1ccccc1C#Cc1cccc(C(F)(F)F)c1`: the GI50 is 29.7 µM and the TGI is 71.3 µM.
The corresponding values for `CC(C)[C@@H]1CC[C@]2(CO2)[C@@H]2C(=O)OCC(C(=O)O)=C[C@H]21` are 0.288 µM and 2.3 µM.
Consider `COc1ccc(/C=C2\CCC/C(=C\c3ccc(OC)c(OC)c3)C2=O)cc1OC`, for which the GI50 is 7.95 µM and the TGI is more than 32.5 µM.

The test system of a further assay is SNB-78 CNS. Nature of the assay: NCI tumour cell line growth inhibition, 48 h.
`CCOC(=O)C1=C(NC)OCC1=O` gave a TGI of more than 100 µM.
The compound `CCOC(=O)C1(C)CCC(C(C(=O)O)C(=O)O)CC1=O` (stereo not given) gave a TGI of more than 100 µM.
The compound `CC1NOC(=O)C1N=Nc1ccc(Cl)cc1Cl` (stereo not given) returned a TGI of 69.2 µM.
With `O=C(c1ccccc1)[C@H]1Nc2ccc(Cl)cc2[C@H]2CCC[C@@H]12`, the TGI was more than 100 µM.
`C[C@H](C(=O)O)C(=O)NC(=O)N(Cc1ccccc1)N=O`: the TGI was more than 100 µM.
`NNC(=O)C(=O)NN=C(C(Cl)(Cl)CO)C(Cl)(Cl)CO` registered a TGI of more than 100 µM.
As to `O=C1N[C@@H]2CCCC[C@@H]2C12CCCCC2`, the TGI was more than 100 µM.
Regarding `NC1=NC(Cn2nc(-c3ccccc3)c3ccccc3c2=O)=NNC(=O)N1`, the TGI was more than 100 µM.
With `O=C(NCCc1ccccc1)C1C(=O)C(=O)N(CCc2ccccc2)C1=O` (stereo not given), the TGI was more than 100 µM.
Regarding `CC(=O)OC1COC(N2CCc3cc([N+](=O)[O-])ccc32)C(OC(C)=O)C1OC(C)=O` (stereo not given), the TGI was more than 100 µM.
The compound `CCOC(=O)C1S(=O)(=O)OCCOS1(=O)=O` gave a TGI of more than 100 µM.
`O=[N+]([O-])c1ccc(-c2ccc(C3=Nn4c(CNc5ccccc5Cl)nnc4SC3)o2)cc1` had a TGI of more than 100 µM.
Regarding `CCCC(=O)CC(C)C(=O)C(=O)NC12CC3CC(CC(C3)C1)C2` (stereo not given), the TGI was more than 100 µM.
Compound `CC(=O)OCC(=O)[C@@]1(O)CC[C@H]2[C@@H]3C[C@H](C)C4=CC(=O)C=C[C@]4(C)[C@@]3(F)[C@@H](O)C[C@@]21C` returned a TGI of more than 100 µM.
Take `COc1cc(/C=C/c2csnn2)cc(OC)c1OC`: the TGI was more than 100 µM.
The compound `c1ccc(C(c2ccccc2)c2ccccn2)cc1` had a TGI of more than 100 µM.

In another assay the test system is KM20L2 colon. In words: NCI tumour cell line growth inhibition, 48 h.
In turn, `CCOC(=O)C1=C(NC)OCC1=O` showed a TGI of more than 100 µM.
Take `CCOC(=O)C1(C)CCC(C(C(=O)O)C(=O)O)CC1=O` (stereo not given): the TGI is more than 100 µM.
Same read-out and setting: with `COC(=O)C1=C(C(=O)OC)C2(c3ccccc3)OC1(c1ccccc1)c1cc3ccccc3cc12` the figure was 3.76 µM.
Compound `CC1NOC(=O)C1N=Nc1ccc(Cl)cc1Cl` (stereo not given) showed a TGI of more than 100 µM.
Regarding `O=C(c1ccccc1)[C@H]1Nc2ccc(Cl)cc2[C@H]2CCC[C@@H]12`, the TGI is more than 100 µM.
The same measure, in the same setting: with `COc1ccc2nc(NC(=O)C(=O)CC(=O)c3ccc([N+](=O)[O-])cc3)sc2c1` the figure was more than 100 µM; with `CC(=O)Nc1ccc(C2CC(c3ccc([N+](=O)[O-])cc3)=Nc3ccccc3S2=O)cc1` (stereo not given), 57.5 µM; with `COc1cc(/C=C2\NC(=O)C(Cc3cc(OC)c(OC)c(C)c3OC)N(C(C)=O)C2=O)c(OC)c(C)c1OC` (stereo not given), more than 100 µM.
`C[C@H](C(=O)O)C(=O)NC(=O)N(Cc1ccccc1)N=O` returned a TGI of more than 100 µM.
On to `NNC(=O)C(=O)NN=C(C(Cl)(Cl)CO)C(Cl)(Cl)CO`, for which the TGI was more than 100 µM.
In turn, `O=C1N[C@@H]2CCCC[C@@H]2C12CCCCC2` displayed a TGI of more than 100 µM.
Regarding `COc1ccc2ccccc2c1C1=NC(C)(C)CO1`, the TGI is more than 100 µM.
On the same count and under the same terms, then `O=C(NCCc1ccccc1)C1C(=O)C(=O)N(CCc2ccccc2)C1=O` (stereo not given), with more than 100 µM; and `OC(c1ccccc1Br)(c1ccccc1Br)C(F)(F)F`, with 52.3 µM; and `NC(N)=NCCCC(NCc1c2ccccc2nc2ccccc12)C(=O)O` (stereo not given), with 86.7 µM.
With `CC(=O)OC1COC(N2CCc3cc([N+](=O)[O-])ccc32)C(OC(C)=O)C1OC(C)=O` (stereo not given), the TGI was more than 100 µM.
Still for that read-out and setting: then `CC12OC(=O)C(C#N)C1(C)C1C(=O)CCCC12` (stereo not given), with more than 100 µM; and `Cc1nc2ccccc2c(=O)n1/N=C(\N=Nc1ccccc1Cl)c1ccccc1Cl`, with more than 100 µM.
`O=[N+]([O-])c1ccc(-c2ccc(C3=Nn4c(CNc5ccccc5Cl)nnc4SC3)o2)cc1` yielded a TGI of more than 100 µM.
In the case of `CCCC(=O)CC(C)C(=O)C(=O)NC12CC3CC(CC(C3)C1)C2` (stereo not given), the TGI was more than 100 µM.
Consider `CC(=O)OCC(=O)[C@@]1(O)CC[C@H]2[C@@H]3C[C@H](C)C4=CC(=O)C=C[C@]4(C)[C@@]3(F)[C@@H](O)C[C@@]21C`, for which the TGI was more than 100 µM.
In turn, `c1ccc(C(c2ccccc2)c2ccccn2)cc1` had a TGI of more than 100 µM.

In a further assay the test system is MDA-MB-435. In words: NCI tumour cell line growth inhibition, 48 h.
`NC(N)=NCCCC(NCc1c2ccccc2nc2ccccc12)C(=O)O` (stereo not given) returned a TGI of more than 100 µM.
`Cc1cc(Br)c(NC(=O)c2c(-c3c(Cl)cccc3Cl)noc2C)c(Br)c1`: the GI50 was more than 100 µM and the TGI was more than 100 µM.
In the case of `OCC1CC[N-]CC1.OCC1CC[N-]CC1.[Cl][Pt+2]([Cl])([Cl])[Cl]`, the GI50 is 24.4 µM and the TGI was 64.9 µM.
Consider `OCCCCC#Cc1ccccc1C#Cc1cccc(C(F)(F)F)c1`, for which the GI50 was 16.9 µM and the TGI was 31.6 µM.
Consider `CC(C)[C@@H]1CC[C@]2(CO2)[C@@H]2C(=O)OCC(C(=O)O)=C[C@H]21`, for which the GI50 was 0.355 µM and the TGI came to 6.72 µM.
